Like-named read-outs stand apart in the source and are kept apart here.
Tests used:
hCB1R = target: T1, hCB1R (Homo sapiens, UniProt P21554); assay: biochemical; format: binding
T1 construct: host or cells: CHO

mCB1R = target: T2, mCB1R (Mus musculus, UniProt P47746); assay: biochemical; format: binding
T2 construct: from tissue; host or cells: brain of male C57BL/6J mice

Rat recombinant TRPM8 = target: T3, Rat recombinant TRPM8 (Rattus norvegicus, UniProt Q8R455); assay: TRP channel [Ca2+]i assay; format: cell-based; details: read-out: TRPM8 IC50 for antagonism of icilin
T3 construct: expressed in transfected cells; host or cells: HEK293 (TRPM8-HEK-293, gift from Mario van der Stelt)

alpha 1A (h) = target: T4, alpha 1A (h) (Homo sapiens, UniProt P35348); assay: CEREP panel; format: binding
T4 construct: CEREP
T4 sequence (P35348 1-466): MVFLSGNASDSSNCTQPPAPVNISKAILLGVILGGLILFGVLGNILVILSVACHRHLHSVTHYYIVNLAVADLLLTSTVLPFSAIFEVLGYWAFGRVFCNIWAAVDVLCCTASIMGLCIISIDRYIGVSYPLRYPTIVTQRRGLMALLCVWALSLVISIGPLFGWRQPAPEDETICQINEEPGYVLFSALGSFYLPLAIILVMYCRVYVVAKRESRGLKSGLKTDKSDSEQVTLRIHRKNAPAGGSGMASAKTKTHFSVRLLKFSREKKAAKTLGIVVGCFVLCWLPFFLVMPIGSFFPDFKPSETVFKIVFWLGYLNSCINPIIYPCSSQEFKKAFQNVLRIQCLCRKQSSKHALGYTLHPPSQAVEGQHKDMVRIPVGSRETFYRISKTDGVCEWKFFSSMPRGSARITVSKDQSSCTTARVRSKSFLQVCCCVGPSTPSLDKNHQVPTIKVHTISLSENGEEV

hCB2R [1] = target: T5, hCB2R (Homo sapiens, UniProt P34972); parameters: expressed in transfected cells; host or cells: Flp-In-293 (Invitrogen #R750-07), pcDNA5/FRT; details: hCB2R
hCB2R [2] = target: T5, hCB2R; assay: biochemical; format: binding; details: CHO membranes; Leiden, HU210 and SR144528 from Roche
hABHD12 = target: T6, hABHD12 (Homo sapiens, UniProt Q8N2K0); assay: ABHD12 activity; format: biochemical; details: read-out: ABHD12 IC50 (95% CI); full dose-response
T6 construct: expressed in transfected cells
T6 sequence (Q8N2K0 1-398): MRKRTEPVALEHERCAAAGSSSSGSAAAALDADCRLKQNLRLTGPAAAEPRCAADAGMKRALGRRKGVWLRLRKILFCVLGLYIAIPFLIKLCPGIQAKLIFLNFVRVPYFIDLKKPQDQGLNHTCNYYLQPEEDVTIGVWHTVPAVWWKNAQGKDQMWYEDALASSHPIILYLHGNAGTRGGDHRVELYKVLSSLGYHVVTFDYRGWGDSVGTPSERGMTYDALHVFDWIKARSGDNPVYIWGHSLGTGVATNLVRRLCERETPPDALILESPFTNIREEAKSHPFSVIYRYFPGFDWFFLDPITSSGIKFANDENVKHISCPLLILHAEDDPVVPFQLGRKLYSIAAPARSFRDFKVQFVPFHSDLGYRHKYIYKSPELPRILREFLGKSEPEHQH
Description: HEK293T cells were obtained from American Type Culture Collection (ATCC, Manassas, VA, USA). Lipofectamine 2000 was obtained from Life Technologies (Carlsbad, CA, USA) and geneticin from InvivoGen. Cell culture medium, FBS, and cell culture supplements were from Invitrogen (Carlsbad, CA, USA). pCMV6-AC-hABHD6 and pCMV6-XL4-hABHD12 were a kind gift from Prof Jarmo T. Laitinen. hABHD12 sequence was subsequently inserted in a pcDNA3.1 plasmid in order to generate a stable cell line. The effect of CB2R ligands on ABHD6 and ABHD12 hydrolytic activity was determined using cell homogenate from hABHD6 and hABHD12 overexpressing HEK293T cells (40 μg total protein per condition). Samples were pre-incubated with the compounds (10 μM in the screening assay and concentrations in the range 1 nM—50 μM for the dose-response curves) in […] (pH=7.6) buffer containing 0.1%(w/v) BSA. DMSO was used as vehicle control and WWL70 10 μM or THL 20 μM as positive controls. [^3H]-2-OG (10 μM final concentration) was added and after incubation of 5 min at 37 °C, the reaction was stopped by the addition of 400 μl of ice-cold CHCl3:MeOH (1:1). The samples were vortex and centrifuged (16,100g 10 min 4 °C). Aliquots (200 μl) of the aqueous phase were assayed for tritium content by liquid scintillation spectroscopy. The values obtained for each measurement were corrected for non-specific hydrolysis (non-ABHD6 mediated) by subtracting the signal obtained in the hydrolysis of [^3H]- 2-OG by non-transfected HEK293T.

T5 sequence (P34972 whole entry): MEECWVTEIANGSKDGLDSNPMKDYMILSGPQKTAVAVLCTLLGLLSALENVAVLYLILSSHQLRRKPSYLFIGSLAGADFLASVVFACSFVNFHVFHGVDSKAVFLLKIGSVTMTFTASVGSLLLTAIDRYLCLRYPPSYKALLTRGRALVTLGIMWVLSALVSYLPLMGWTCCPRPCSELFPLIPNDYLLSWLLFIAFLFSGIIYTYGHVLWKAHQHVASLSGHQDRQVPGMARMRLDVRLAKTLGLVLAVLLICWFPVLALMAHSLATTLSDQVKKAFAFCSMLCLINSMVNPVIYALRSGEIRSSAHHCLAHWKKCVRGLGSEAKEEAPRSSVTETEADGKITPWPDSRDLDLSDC
T3 sequence (Q8R455 whole entry): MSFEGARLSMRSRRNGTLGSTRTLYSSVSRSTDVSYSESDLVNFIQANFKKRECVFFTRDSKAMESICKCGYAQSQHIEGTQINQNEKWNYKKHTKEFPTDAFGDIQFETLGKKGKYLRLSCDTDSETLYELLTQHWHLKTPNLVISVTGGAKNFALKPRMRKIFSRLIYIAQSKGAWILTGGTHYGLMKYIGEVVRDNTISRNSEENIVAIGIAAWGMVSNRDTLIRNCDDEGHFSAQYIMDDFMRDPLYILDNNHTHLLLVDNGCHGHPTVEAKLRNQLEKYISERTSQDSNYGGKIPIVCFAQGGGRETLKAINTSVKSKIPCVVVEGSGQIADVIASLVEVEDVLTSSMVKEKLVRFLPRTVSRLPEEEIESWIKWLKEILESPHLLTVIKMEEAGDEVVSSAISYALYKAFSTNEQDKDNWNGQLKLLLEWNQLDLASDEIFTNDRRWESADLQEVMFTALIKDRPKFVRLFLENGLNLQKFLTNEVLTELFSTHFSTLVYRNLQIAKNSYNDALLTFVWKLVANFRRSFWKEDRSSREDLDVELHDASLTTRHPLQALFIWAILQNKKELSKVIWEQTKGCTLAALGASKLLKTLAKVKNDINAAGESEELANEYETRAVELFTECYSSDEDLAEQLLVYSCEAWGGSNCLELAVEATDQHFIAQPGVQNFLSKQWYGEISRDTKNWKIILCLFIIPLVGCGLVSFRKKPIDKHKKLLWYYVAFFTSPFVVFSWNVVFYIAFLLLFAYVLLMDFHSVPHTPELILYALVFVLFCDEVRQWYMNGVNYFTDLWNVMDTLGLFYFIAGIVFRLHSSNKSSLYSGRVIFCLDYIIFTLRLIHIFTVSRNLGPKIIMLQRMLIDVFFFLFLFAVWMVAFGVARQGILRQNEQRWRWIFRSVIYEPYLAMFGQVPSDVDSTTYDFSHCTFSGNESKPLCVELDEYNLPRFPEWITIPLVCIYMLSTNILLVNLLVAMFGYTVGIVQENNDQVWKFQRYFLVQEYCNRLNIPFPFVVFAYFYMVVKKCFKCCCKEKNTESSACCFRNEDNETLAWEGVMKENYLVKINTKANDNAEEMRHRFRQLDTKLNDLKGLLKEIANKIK
T1 sequence (P21554 whole entry): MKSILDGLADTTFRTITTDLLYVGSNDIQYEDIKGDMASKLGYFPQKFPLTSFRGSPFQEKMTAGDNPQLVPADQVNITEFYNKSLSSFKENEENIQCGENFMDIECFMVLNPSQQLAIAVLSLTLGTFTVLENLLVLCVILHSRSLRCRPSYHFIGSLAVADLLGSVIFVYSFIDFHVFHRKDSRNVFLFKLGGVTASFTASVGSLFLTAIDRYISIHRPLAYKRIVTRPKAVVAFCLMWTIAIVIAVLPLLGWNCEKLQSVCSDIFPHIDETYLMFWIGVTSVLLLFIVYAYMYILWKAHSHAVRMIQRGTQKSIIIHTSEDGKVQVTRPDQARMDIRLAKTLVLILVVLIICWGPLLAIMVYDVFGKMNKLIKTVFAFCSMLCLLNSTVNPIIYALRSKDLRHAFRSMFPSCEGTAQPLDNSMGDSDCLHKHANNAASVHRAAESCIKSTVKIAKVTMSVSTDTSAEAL
T2 sequence (P47746 whole entry): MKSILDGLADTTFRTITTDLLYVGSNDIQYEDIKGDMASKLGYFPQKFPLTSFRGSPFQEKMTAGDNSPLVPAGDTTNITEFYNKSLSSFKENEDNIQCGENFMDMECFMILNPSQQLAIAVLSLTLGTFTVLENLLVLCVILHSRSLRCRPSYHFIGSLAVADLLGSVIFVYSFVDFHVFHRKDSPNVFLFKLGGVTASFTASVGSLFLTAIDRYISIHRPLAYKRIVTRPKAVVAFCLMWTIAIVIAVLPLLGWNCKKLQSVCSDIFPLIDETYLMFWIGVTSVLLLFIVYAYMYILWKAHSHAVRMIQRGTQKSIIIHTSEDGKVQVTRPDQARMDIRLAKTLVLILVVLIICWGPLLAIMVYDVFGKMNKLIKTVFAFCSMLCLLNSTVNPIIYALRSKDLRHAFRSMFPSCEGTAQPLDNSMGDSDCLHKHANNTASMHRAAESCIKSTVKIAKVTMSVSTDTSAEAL

Structure (SMILES): CCCCCCC(C)(C)c1cc(OC)c([C@@H]2C=C(CO)[C@@H]3C[C@H]2C3(C)C)c(OC)c1 [HU308]
- Ki (hCB1R): > 10000 nM
- Ki (mCB1R): 832 nM
- IC50 (Rat recombinant TRPM8; vs icilin 0.25μM): > 100000 nM
- inhibition at 10 µM (alpha 1A (h); read-out: % inhibition alpha 1A (h)): 2%
- GIRK-GTPγS bias factor (BF) (hCB2R [1]): 0.56
- GIRK-GTPγS ΔΔlogR (hCB2R [1]): -0.26
- GIRK-cAMP bias factor (BF) (hCB2R [1]): 4.33
- GIRK-cAMP ΔΔlogR (hCB2R [1]): 0.64 ± 0.17
- GTPγS-cAMP bias factor (BF) (hCB2R [1]): 7.78
- GTPγS-cAMP ΔΔlogR (hCB2R [1]): 0.89 ± 0.30
- LogR GIRK (hCB2R [1]): 6.281
- LogR GTPγS (hCB2R [1]): 6.95
- LogR cAMP (hCB2R [1]): 8.49
- LogR pERK (hCB2R [1]): 7.55
- LogR β-AR (hCB2R [1]): 7.72
- pERK-GIRK bias factor (BF) (hCB2R [1]): 1.25
- pERK-GIRK ΔΔlogR (hCB2R [1]): 0.1 ± 0.3
- pERK-GTPγS bias factor (BF) (hCB2R [1]): 0.70
- pERK-GTPγS ΔΔlogR (hCB2R [1]): -0.16
- pERK-cAMP bias factor (BF) (hCB2R [1]): 5.42
- pERK-cAMP ΔΔlogR (hCB2R [1]): 0.73 ± 0.27
- β-AR-GIRK bias factor (BF) (hCB2R [1]): 6.37
- β-AR-GIRK ΔΔlogR (hCB2R [1]): 0.80 ± 0.19
- β-AR-GTPγS bias factor (BF) (hCB2R [1]): 3.54
- β-AR-GTPγS ΔΔlogR (hCB2R [1]): 0.55 ± 0.32
- β-AR-cAMP bias factor (BF) (hCB2R [1]): 27.16
- β-AR-cAMP ΔΔlogR (hCB2R [1]): 1.43 ± 0.16
- β-AR-pERK bias factor (BF) (hCB2R [1]): 5.08
- β-AR-pERK ΔΔlogR (hCB2R [1]): 0.71 ± 0.29
- ΔLogR GIRK (hCB2R [1]; reference CP55940): -1.58
- ΔLogR GTPγS (hCB2R [1]; reference CP55940): -1.33
- ΔLogR cAMP (hCB2R [1]; reference CP55940): -2.22
- ΔLogR pERK (hCB2R [1]; reference CP55940): -1.48
- ΔLogR β-AR (hCB2R [1]; reference CP55940): -0.78
- RE GIRK (hCB2R [1]; relative effectiveness): 0.03
- RE GTPγS (hCB2R [1]; relative effectiveness): 0.05
- RE cAMP (hCB2R [1]; relative effectiveness): 0.006
- RE pERK (hCB2R [1]; relative effectiveness): 0.03
- RE β-AR (hCB2R [1]; relative effectiveness): 0.17

Structure (SMILES): Cc1ccc2c(c1)Cc1c(C(=O)NN3CCCCC3)nn(-c3ccc(Cl)cc3Cl)c1-2 [Gp-1a]
- pKi ± SEM hCB2R (hCB2R [2]): 7.66 ± 0.11
- pKi ± SEM hCB1R (hCB1R; CHO membranes, Leiden, HU210 and SR144528 from Roche): 6.97 ± 0.35
- pKi ± SEM mCB1R (mCB1R; mouse brain membranes): 6.37 ± 0.08
- IC50 (hABHD12): 800 nM
- IC50 (Rat recombinant TRPM8; vs icilin […]): > 50000 nM
- % inhibition alpha 1A (h) (alpha 1A (h); 10 µM): 11%

Reference: publication PMC5216056 (Nature Communications, 2017)
